Reference: patent US10005767B2, “Compositions and methods for inhibition of the JAK pathway” (Rigel Pharmaceuticals, Inc., priority 2009, dated 2018)
Like-named read-outs stand apart in the source and are kept apart here.

System: human primary T-cells, IL-2 stimulated proliferation (JAK-1 and JAK-3 dependent; reported as JAK3 activity)
Assay: Human primary T-cell proliferation stimulated by IL-2 (Example 3)
Type: cell-based
Settings: tested under conditions described in Example 3 (IL-2 stimulated human primary T-cell proliferation), read-out: ability to inhibit JAK3 activity, IC50 range (Table V)
How it was run: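 Peripheral-blood human T-cells pre-activated via TCR/CD28, IL-2-starved overnight, then cultured 72 h at 37 °C with compound in Yssel's medium containing IL-2 (80 U/mL in cell suspension). Proliferation read as viable-cell ATP by CellTiter-Glo luminescence; reduction versus control taken as JAK pathway inhibition.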

| Compound | IC50 (Homo sapiens, T-cell) [µM] | IC50 [µM] |
| --- | --- | --- |
| Cc1cnc(Nc2cccnc2)nc1Nc1ccc2oc(=O)[nH]c2c1 [II-42, 5-[5-Methyl-2-(pyridin-3-ylamino)-pyrimidin-4-ylamino]-3H-benzooxazol-2-one] | 0.5 to 5 | – |
| Cc1cnc(Nc2ccc(S(C)(=O)=O)nc2)nc1Nc1ccc2oc(=O)[nH]c2c1 [II-43, 5-[2-(6-Methanesulfonyl-pyridin-3-ylamino)-5-methyl-pyrimidin-4-ylamino]-3H-benzooxazol-2-one] | < 0.5 | – |
| Cc1cnc(Nc2ccc(N3CCN[C@@H](C)C3)nc2)nc1Nc1ccc2oc(=O)[nH]c2c1 [II-44, 5-{5-Methyl-2-[6-((S)-3-methyl-piperazin-1-yl)-pyridin-3-ylamino]-pyrimidin-4-ylamino}-3H-benzooxazol-2-one] | < 0.5 | – |
| Cc1cnc(Nc2ccc(C(=O)N3CCNCC3)nc2)nc1Nc1ccc2oc(=O)[nH]c2c1 [II-45, 5-{5-Methyl-2-[6-(piperazine-1-carbonyl)-pyridin-3-ylamino]-pyrimidin-4-ylamino}-3H-benzooxazol-2-one] | < 0.5 | – |
| Cc1cnc(Nc2ccc(C(=O)N3CCN(CC4CC4)CC3)nc2)nc1Nc1ccc2oc(=O)[nH]c2c1 [II-46, 5-{2-[6-(4-Cyclopropylmethyl-piperazine-1-carbonyl)-pyridin-3-ylamino]-5-methyl-pyrimidin-4-ylamino}-3H-benzooxazol-2-one] | 0.5 to 5 | – |
| Cc1cnc(Nc2ccc(C(=O)N3CCN(CC(C)C)CC3)nc2)nc1Nc1ccc2oc(=O)[nH]c2c1 [II-47, 5-{2-[6-(4-Isobutyl-piperazine-1-carbonyl)-pyridin-3-ylamino]-5-methyl-pyrimidin-4-ylamino}-3H-benzooxazol-2-one] | < 0.5 | – |
| Cc1cnc(Nc2cnc(N3CC4CN(C(=O)OC(C)(C)C)CC4C3)c(F)c2)nc1Nc1ccc2oc(=O)[nH]c2c1 (stereo not drawn) [II-48, 5-{3-Fluoro-5-[5-methyl-4-(2-oxo-2,3-dihydro-benzooxazol-5-ylamino)-pyrimidin-2-ylamino]-pyridin-2-yl}-hexahydro-pyrrolo[3,4-c]pyrrole-2-carboxylic acid tert-butyl ester] | < 0.5 | – |
| Cc1cnc(Nc2cnc(N3CC4CC3CN4C(=O)OC(C)(C)C)c(F)c2)nc1Nc1ccc2oc(=O)[nH]c2c1 (stereo not drawn) [II-49, 5-{3-Fluoro-5-[5-methyl-4-(2-oxo-2,3-dihydro-benzooxazol-5-ylamino)-pyrimidin-2-ylamino]-pyridin-2-yl}-2,5-diaza-bicyclo[2.2.1]heptane-2-carboxylic acid tert-butyl ester] | < 0.5 | – |
| Cc1cnc(Nc2cnc(N3CC4CNCC4C3)c(F)c2)nc1Nc1ccc2oc(=O)[nH]c2c1 (stereo not drawn) [II-50, 5-{2-[5-Fluoro-6-(hexahydro-pyrrolo[3,4-c]pyrrol-2-yl)-pyridin-3-ylamino]-5-methyl-pyrimidin-4-ylamino}-3H-benzooxazol-2-one] | < 0.5 | – |
| Cc1cnc(Nc2cnc(N3CC4CC3CN4)c(F)c2)nc1Nc1ccc2oc(=O)[nH]c2c1 (stereo not drawn) [II-51, 5-{2-[6-(2,5-Diaza-bicyclo[2.2.1]hept-2-yl)-5-fluoro-pyridin-3-ylamino]-5-methyl-pyrimidin-4-ylamino}-3H-benzooxazol-2-one] | < 0.5 | – |
| Cc1cnc(Nc2cnc(N3CC4CN(CC5CC5)CC4C3)c(F)c2)nc1Nc1ccc2oc(=O)[nH]c2c1 (stereo not drawn) [II-52, 5-{2-[6-(5-Cyclopropylmethyl-hexahydro-pyrrolo[3,4-c]pyrrol-2-yl)-5-fluoro-pyridin-3-ylamino]-5-methyl-pyrimidin-4-ylamino}-3H-benzooxazol-2-one] | < 0.5 | – |
| Cc1cnc(Nc2cnc(N3CC4CN(C(=O)C5CC5)CC4C3)c(F)c2)nc1Nc1ccc2oc(=O)[nH]c2c1 (stereo not drawn) [II-53, 5-{2-[6-(5-Cyclopropanecarbonyl-hexahydro-pyrrolo[3,4-c]pyrrol-2-yl)-5-fluoro-pyridin-3-ylamino]-5-methyl-pyrimidin-4-ylamino}-3H-benzooxazol-2-one] | < 0.5 | – |
| Cc1cnc(Nc2cnc(N3CC4CC3CN4CC3CC3)c(F)c2)nc1Nc1ccc2oc(=O)[nH]c2c1 (stereo not drawn) [II-54, 5-{2-[6-(5-Cyclopropylmethyl-2,5-diaza-bicyclo[2.2.1]hept-2-yl)-5-fluoro-pyridin-3-ylamino]-5-methyl-pyrimidin-4-ylamino}-3H-benzooxazol-2-one] | < 0.5 | – |
| Cc1cnc(Nc2ccc(N3CCN(C)[C@H](C)C3)nc2)nc1Nc1ccc2oc(=O)[nH]c2c1 [II-55, (R)-5-(2-(6-(3,4-dimethylpiperazin-1-yl)pyridin-3-ylamino)-5-methylpyrimidin-4-ylamino)benzo[d]oxazol-2(3H)-one] | < 0.5 | – |
| Cc1cnc(Nc2ccc(N3CCN(CC4CC4)[C@H](C)C3)nc2)nc1Nc1ccc2oc(=O)[nH]c2c1 [II-56, (R)-5-(2-(6-(4-(cyclopropylmethyl)-3-methylpiperazin-1-yl)pyridin-3-ylamino)-5-methylpyrimidin-4-ylamino)benzo[d]oxazol-2(3H)-one] | < 0.5 | – |
| Cc1cnc(Nc2ccc(N3CCN(C(=O)C(F)(F)F)[C@H](C)C3)nc2)nc1Nc1ccc2oc(=O)[nH]c2c1 [II-57, (R)-5-(5-methyl-2-(6-(3-methyl-4-(2,2,2-trifluoroacetyl)piperazin-1-yl)pyridin-3-ylamino)pyrimidin-4-ylamino)benzo[d]oxazol-2(3H)-one] | < 0.5 | – |
| CCOP(=O)(OCC)N1CCN(c2ccc(Nc3ncc(C)c(Nc4ccc5oc(=O)[nH]c5c4)n3)cn2)C[C@H]1C [II-58, (R)-diethyl 2-methyl-4-(5-(5-methyl-4-(2-oxo-2,3-dihydrobenzo[d]oxazol-5-ylamino)pyrimidin-2-ylamino)pyridin-2-yl)piperazin-1-ylphosphonate] | – | < 0.5 |
| Cc1cnc(Nc2ccc(N3CCC(F)(F)CC3)nc2)nc1Nc1ccc2oc(=O)[nH]c2c1 [II-59, 5-(2-(6-(4,4-difluoropiperidin-1-yl)pyridin-3-ylamino)-5-methylpyrimidin-4-ylamino)benzo[d]oxazol-2(3H)-one] | < 0.5 | – |
| Cc1cnc(Nc2ccc(N3CCC(C)(C)CC3)nc2)nc1Nc1ccc2oc(=O)[nH]c2c1 [II-60, 5-(2-(6-(4,4-dimethylpiperidin-1-yl)pyridin-3-ylamino)-5-methylpyrimidin-4-ylamino)benzo[d]oxazol-2(3H)-one] | < 0.5 | – |
| Cc1cnc(Nc2cnc(N3CC4CCC(C3)N4)c(C)c2)nc1Nc1ccc2oc(=O)[nH]c2c1 [II-61, 5-(2-(6-(3,8-diaza-bicyclo[3.2.1]octan-3-yl)-5-methylpyridin-3-ylamino)-5-methylpyrimidin-4-ylamino)benzo[d]oxazol-2(3H)-one] | < 0.5 | – |
| Cc1cnc(Nc2cnc(N3CC4CCC(C3)N4C(=O)C(F)(F)F)c(C)c2)nc1Nc1ccc2oc(=O)[nH]c2c1 [II-63, 5-(5-methyl-2-(5-methyl-6-(8-(2,2,2-trifluoroacetyl)-3,8-diaza-bicyclo[3.2.1]octan-3-yl)pyridin-3-ylamino)pyrimidin-4-ylamino)benzo[d]oxazol-2(3H)-one] | < 0.5 | – |
| Cc1cnc(Nc2cnc(N3CC4CCC(C3)N4C)c(C)c2)nc1Nc1ccc2oc(=O)[nH]c2c1 [II-64, 5-(5-methyl-2-(5-methyl-6-(8-methyl-3,8-diaza-bicyclo[3.2.1]octan-3-yl)pyridin-3-ylamino)pyrimidin-4-ylamino)benzo[d]oxazol-2(3H)-one] | < 0.5 | – |
| Cc1cnc(Nc2cnc(C3CC4CCC(C3)N4C(=O)OC(C)(C)C)c(C)c2)nc1Nc1ccc2oc(=O)[nH]c2c1 (stereo not drawn) [II-65, tert-butyl 3-(3-methyl-5-(5-methyl-4-(2-oxo-2,3-dihydrobenzo[d]oxazol-5-ylamino)pyrimidin-2-ylamino)pyridin-2-yl)-8-azabicyclo[3.2.1]octane-8-carboxylate] | < 0.5 | – |
| Cc1cnc(Nc2cnc(C3CC4CCC(C3)N4)c(C)c2)nc1Nc1ccc2oc(=O)[nH]c2c1 (stereo not drawn) [II-66, 5-(2-(6-(8-aza-bicyclo[3.2.1]octan-3-yl)-5-methylpyridin-3-ylamino)-5-methylpyrimidin-4-ylamino)benzo[d]oxazol-2(3H)-one] | 0.5 to 5 | – |
| Cc1cnc(Nc2cnc(C3CC4CCC(C3)N4CC3CC3)c(C)c2)nc1Nc1ccc2oc(=O)[nH]c2c1 (stereo not drawn) [II-67, 5-(2-(6-(8-(cyclopropylmethyl)-8-aza-bicyclo[3.2.1]octan-3-yl)-5-methylpyridin-3-ylamino)-5-methylpyrimidin-4-ylamino)benzo[d]oxazol-2(3H)-one] | < 0.5 | – |
| COC(=O)N1C2CCC1CC(c1ncc(Nc3ncc(C)c(Nc4ccc5oc(=O)[nH]c5c4)n3)cc1C)C2 (stereo not drawn) [II-68, methyl 3-(3-methyl-5-(5-methyl-4-(2-oxo-2,3-dihydrobenzo[d]oxazol-5-ylamino)pyrimidin-2-ylamino)pyridin-2-yl)-8-azabicyclo[3.2.1]octane-8-carboxylate] | < 0.5 | – |
| Cc1cnc(Nc2cnc(C3CC4CCC(C3)N4C(=O)C(F)(F)F)c(C)c2)nc1Nc1ccc2oc(=O)[nH]c2c1 (stereo not drawn) [II-69, 5-(5-methyl-2-(5-methyl-6-(8-(2,2,2-trifluoroacetyl)-8-aza-bicyclo[3.2.1]octan-3-yl)pyridin-3-ylamino)pyrimidin-4-ylamino)benzo[d]oxazol-2(3H)-one] | < 0.5 | – |
| Cc1cnc(Nc2ccc(N3CCN(C(C)C)[C@H](C)C3)nc2)nc1Nc1ccc2oc(=O)[nH]c2c1 [II-70, (R)-5-(2-(6-(4-isopropyl-3-methylpiperazin-1-yl)pyridin-3-ylamino)-5-methylpyrimidin-4-ylamino)benzo[d]oxazol-2(3H)-one] | < 0.5 | – |
| Cc1cnc(Nc2ccc(N3CCCC3)nc2)nc1Nc1ccc2oc(=O)[nH]c2c1 [II-71, 5-(5-methyl-2-(6-(pyrrolidin-1-yl)pyridin-3-ylamino)pyrimidin-4-ylamino)benzo[d]oxazol-2(3H)-one] | < 0.5 | – |
| Cc1cnc(Nc2ccc(N3CCN(C)CC3)nc2)nc1Nc1cc(C)c2oc(=O)[nH]c2c1 [II-72, 7-methyl-5-(5-methyl-2-(6-(4-methylpiperazin-1-yl)pyridin-3-ylamino)pyrimidin-4-ylamino)benzo[d]oxazol-2(3H)-one] | < 0.5 | – |
